Reference: patent US6479499B1
≈ marks a conversion by molar mass, not a printed value. Read-outs that look alike come from different tables or passages of the source.

What was measured:
bovine brain tubulin = experiment: Tubulin polymerization assay (antimicrotubule assay); settings: read-out: ITP (inhibition of tubulin polymerization) IC50; tubulin […] (12 μM), 26° C., 20 min
[1] = tested on: epidermoid carcinoma of the nasopharynx (KB); experiment: In vitro cytotoxicity, KB; settings: Homo sapiens; for IC50: 96 h, read-out: ED50 KB
[2] = tested on: ileocecal carcinoma (HCT-8); experiment: In vitro cytotoxicity, HCT-8; settings: Homo sapiens; for IC50: HCT-8, 96 h, read-out: ED50 HCT-8
breast cancer (MCF-7) = experiment: In vitro cytotoxicity, MCF-7; settings: Homo sapiens; for IC50: MCF7, 96 h, read-out: ED50 MCF-7; for inhibition at 20 µg/mL: MCF7, read-out: Inhibition at highest test concentration (in brackets), MCF-7
lung carcinoma (A-549) = experiment: In vitro cytotoxicity, A-549; settings: Homo sapiens; for IC50: A549, 96 h, read-out: ED50 A-549
melanoma (SKMEL-2) = experiment: In vitro cytotoxicity, SKMEL-2; settings: for IC50 / inhibition at 20 µg/mL: Homo sapiens; for IC50: SK-MEL-2, 96 h, read-out: ED50 SKMEL-2; for inhibition at 20 µg/mL: SK-MEL-2, read-out: Inhibition at highest test concentration (in brackets), SKMEL-2
[3] = tested on: ten human tumor cell lines; experiment: In vitro cytotoxicity, statements on the panel of tumor cell lines
[4] = tested on: P-gp-expressing epidermoid carcinoma of the nasopharynx (KB-VIN); experiment: In vitro cytotoxicity, KB-VIN; settings: Homo sapiens, KBVIN, 96 h, read-out: ED50 KB-VIN
glioblastoma (U-87-MG) = experiment: In vitro cytotoxicity, U-87-MG; settings: Homo sapiens; for IC50: 96 h, read-out: ED50 U-87-MG; for inhibition at 20 µg/mL: read-out: Inhibition at highest test concentration (in brackets), U-87-MG
[5] = tested on: human ovarian cancer (1A9); experiment: In vitro cytotoxicity, 1A9; settings: 96 h, read-out: ED50 1A9
prostate cancer (PC3) = experiment: In vitro cytotoxicity, PC3; settings: Homo sapiens; for IC50: 96 h, read-out: ED50 PC3; for inhibition at 20 µg/mL: read-out: Inhibition at highest test concentration (in brackets), PC3
bone (HOS) = experiment: In vitro cytotoxicity, HOS; settings: Homo sapiens; for IC50: 96 h, read-out: ED50 HOS; for inhibition at 20 µg/mL: read-out: Inhibition at highest test concentration (in brackets), HOS
[6] = tested on: platelet aggregation induced by arachidonic acid (AA); experiment: Antiplatelet assay, arachidonic acid-induced aggregation; type: cell-based, rabbit; settings: for IC50: Oryctolagus cuniculus, Platelet; for IC50 / Percent aggregation, AA: AA 100 μM
Description: (§1) c. Antiplatelet assay. Blood, collected from the marginal ear vein of rabbits was mixed with EDTA to a final concentration of 6 mM and centrifuged at 90 g for 10 mm at room temperature to obtain platelet-rich plasma. The latter was further centrifuged at 500 g for 10 mm and the platelets were washed with Tyrode's solution without EDTA. After centrifugation at the same conditions, the platelets were suspended in Tyrode's solution with the following compositions (mM): NaCl (136.8), KCl (2.8), NaNCO3(11.9), MgCl2(1.1), NaH2PO4(0.33), CaCl2(1.0), and glucose (11.2). Platelet numbers were determined with a Coulter Counter (Model ZM) and adjusted to 4.5×10^8 platelets/ml.
(§2) Aggregation was measured by the turbidimetric method [O'brien, J. R. J. Clin. Pathol. 1962, 15,452] with a dual-channel Lumi aggregometer (Model 1020, Payton, Canada). All glass ware was siliconized. Test compounds were added one minute before the addition of the aggregation inducer and the platelet suspension was stirred at 900 rpm. The percentage of aggregation was calculated as previously described [Teng, C. M.; Chen, W. Y.; Ko, W. C.; Ouyang, C. Biochem. Biophys. Acta. 1987, 924, 375].

[7] = tested on: platelet aggregation induced by thrombin; experiment: Antiplatelet assay, thrombin-induced aggregation; type: cell-based, rabbit; settings: for Percent aggregation, thrombin: thrombin 0.1 U/ml
Description: as §1, §2

[8] = tested on: platelet aggregation induced by collagen; experiment: Antiplatelet assay, collagen-induced aggregation; type: cell-based, rabbit
Description: as §1, §2

[9] = tested on: platelet aggregation induced by platelet-activating factor (PAF); experiment: Antiplatelet assay, PAF-induced aggregation; type: cell-based, rabbit; settings: for Percent aggregation, PAF: PAF 2 ng/ml
Description: as §1, §2

## COc1cccc(C2NC(=O)c3ccccc3N2)c1 (racemic) [Compound 61, 2,3-Dihydro-2-(3′-methoxyphenyl)-4-quinazolinone]
Bovine brain tubulin
  IC50: 5.6 ± 1 µM
[1]
  IC50: 3 µg/mL (≈ 11.8 µM)
[2]
  IC50: 1.5 µg/mL (≈ 5.9 µM)
Breast cancer (MCF-7)
  IC50: > 20 µg/mL
  inhibition at 20 µg/mL: 48%
Lung carcinoma (A-549)
  IC50: 3 µg/mL (≈ 11.8 µM)
Melanoma (SKMEL-2)
  IC50: > 20 µg/mL
  inhibition at 20 µg/mL: 49%
[3]; more sensitive cell lines
  Times more active than 2′-methoxy (60): about 15 times
  Times more active than 4′-methoxy (62): ~20 times
[4]
  IC50: 1.2 µg/mL (≈ 4.72 µM)
Glioblastoma (U-87-MG)
  IC50: > 20 µg/mL
  inhibition at 20 µg/mL: 35%
[5]
  IC50: 1 µg/mL (≈ 3.93 µM)
Prostate cancer (PC3)
  IC50: > 20 µg/mL
  inhibition at 20 µg/mL: 43%
Bone (HOS)
  IC50: > 20 µg/mL
  inhibition at 20 µg/mL: 42%

## COc1ccc(OC)c(C2NC(=O)c3ccccc3N2)c1 (racemic) [Compound 65, 2,3-Dihydro-2-(2′,5′-dimethoxyphenyl)-4-quinazolinone]
Bovine brain tubulin
  IC50: 32 ± 4 µM
[1]
  IC50: > 20 µg/mL
[1]; read-out: Inhibition at highest test concentration (in brackets), KB
  inhibition at 20 µg/mL: 40%
[2]
  IC50: > 20 µg/mL
[2]; HCT-8, read-out: Inhibition at highest test concentration (in brackets), HCT-8
  inhibition at 20 µg/mL: 32%
Breast cancer (MCF-7)
  IC50: > 20 µg/mL
  inhibition at 20 µg/mL: 42%
Lung carcinoma (A-549)
  IC50: > 20 µg/mL
Lung carcinoma (A-549); A549, read-out: Inhibition at highest test concentration (in brackets), A-549
  inhibition at 20 µg/mL: 42%
Melanoma (SKMEL-2)
  IC50: > 20 µg/mL
  inhibition at 20 µg/mL: 44%
[4]
  IC50: 8.4 µg/mL (≈ 29.5 µM)
Glioblastoma (U-87-MG)
  IC50: > 20 µg/mL
  inhibition at 20 µg/mL: 5%
[5]
  IC50: 10 µg/mL (≈ 35.2 µM)
Prostate cancer (PC3)
  IC50: > 20 µg/mL
  inhibition at 20 µg/mL: 22%
Bone (HOS)
  IC50: > 20 µg/mL
  inhibition at 20 µg/mL: 40%

## COc1cc(OC)cc(C2NC(=O)c3ccccc3N2)c1 (racemic) [Compound 67, 2,3-Dihydro-2-(3′,5′-dimethoxyphenyl)-4-quinazolinone]
Bovine brain tubulin
  IC50: 12 ± 3 µM
[1]
  IC50: 4.7 µg/mL (≈ 16.5 µM)
[2]
  IC50: 3 µg/mL (≈ 10.6 µM)
Breast cancer (MCF-7)
  IC50: > 20 µg/mL
  inhibition at 20 µg/mL: 49%
Lung carcinoma (A-549)
  IC50: 5 µg/mL (≈ 17.6 µM)
Melanoma (SKMEL-2)
  IC50: 4.4 µg/mL (≈ 15.5 µM)
[4]
  IC50: 1.6 µg/mL (≈ 5.63 µM)
Glioblastoma (U-87-MG)
  IC50: > 20 µg/mL
  inhibition at 20 µg/mL: 37%
[5]
  IC50: 1.92 µg/mL (≈ 6.75 µM)
Prostate cancer (PC3)
  IC50: > 20 µg/mL
  inhibition at 20 µg/mL: 44%
Bone (HOS)
  IC50: > 20 µg/mL
  inhibition at 20 µg/mL: 41%

## COc1cccc(C2NC(=O)c3cc(Cl)ccc3N2)c1 (racemic) [Compound 68, 2,3-Dihydro-2-(3′-methoxyphenyl)-6-chloro-4-quinazolinone]
Bovine brain tubulin
  IC50: 1.5 ± 0.01 µM
[1]
  IC50: 0.95 µg/mL (≈ 3.29 µM)
[2]
  IC50: 0.48 µg/mL (≈ 1.66 µM)
Breast cancer (MCF-7)
  IC50: 16 µg/mL (≈ 55.4 µM)
Lung carcinoma (A-549)
  IC50: 0.6 µg/mL (≈ 2.08 µM)
Melanoma (SKMEL-2)
  IC50: < 2.5 µg/mL
Melanoma (SKMEL-2); plateau-dose response, inhibition plateaus over broad dose range
  Inhibition value of plateau-dose response (in brackets), SKMEL-2: 56%
[3]
  ED50, times less than that of 61: about 5 times
[4]
  IC50: 0.42 µg/mL (≈ 1.45 µM)
Glioblastoma (U-87-MG)
  IC50: > 20 µg/mL
  inhibition at 20 µg/mL: 37%
[5]
  IC50: 0.27 µg/mL (≈ 0.935 µM)
Prostate cancer (PC3)
  IC50: 2.5 µg/mL (≈ 8.66 µM)
Bone (HOS)
  IC50: 20 µg/mL (≈ 69.3 µM)

## CCOc1nc(-c2ccccc2)nc2ccccc12 [Compound 70, 4-Ethoxy-2-phenylquinazoline]
[6]; 37° C., 1 min preincubation, read-out: IC50, platelet aggregation induced by arachidonic acid (in vitro) (Table 6)
  IC50: 1600 nM
[6]; read-out: IC50, AA-induced platelet aggregation (Table 5)
  IC50: 1600 nM
[6]; Table 5
  Inhibition of AA-induced platelet aggregation in words: relatively stronger inhibitors
[6]; compound 0.1 μg/ml
  Percent aggregation, AA: 85.5 ± 2.0(5) %
[6]; compound 0.2 μg/ml
  Percent aggregation, AA: 76.9 ± 5.4(5) %
[6]; compound 0.5 μg/ml
  Percent aggregation, AA: 33.8 ± 13.4(5) %
[6]; compound 1 μg/ml
  Percent aggregation, AA: 0.0 ± 0.0(5) %
[6]; compound 100 μg/ml
  Percent aggregation, AA: 0.0 ± 0.0(5) %
[7]; Table 5
  Inhibition of thrombin-induced platelet aggregation in words: poor inhibitors
[7]; compound 20 μg/ml
  Percent aggregation, thrombin: 91.5 ± 1.2(4) %
[7]; compound 50 μg/ml
  Percent aggregation, thrombin: 75.1 ± 7.3(4) %
[7]; compound 100 μg/ml, 37° C., 1 min preincubation
  Percent aggregation, thrombin: 11.7 ± 6.5(4) %
[8]; Oryctolagus cuniculus, Platelet, collagen 10 μg/ml, read-out: IC50, collagen-induced platelet aggregation (Table 5)
  IC50: 9.2 µM
[8]; Table 5
  Inhibition of collagen-induced platelet aggregation in words: relatively stronger inhibitors
[8]; compound 0.1 μg/ml, collagen 10 μg/ml
  Percent aggregation, collagen: 86.4 ± 2.9(4) %
[8]; compound 0.2 μg/ml, collagen 10 μg/ml
  Percent aggregation, collagen: 78.5 ± 4.7(4) %
[8]; compound 0.5 μg/ml, collagen 10 μg/ml
  Percent aggregation, collagen: 63.9 ± 7.4(4) %
[8]; compound 1 μg/ml, collagen 10 μg/ml
  Percent aggregation, collagen: 47.1 ± 6.6(4) %
[8]; compound 2 μg/ml, collagen 10 μg/ml
  Percent aggregation, collagen: 35.0 ± 10.3(4) %
[8]; compound 5 μg/ml, collagen 10 μg/ml
  Percent aggregation, collagen: 30.1 ± 9.0(4) %
[8]; compound 10 μg/ml, collagen 10 μg/ml
  Percent aggregation, collagen: 19.3 ± 9.8(4) %
[8]; compound 20 μg/ml, collagen 10 μg/ml
  Percent aggregation, collagen: 10.3 ± 6.0(4) %
[8]; compound 50 μg/ml, collagen 10 μg/ml
  Percent aggregation, collagen: 0.0 ± 0.0(4) %
[8]; compound 100 μg/ml, collagen 10 μg/ml
  Percent aggregation, collagen: 0.0 ± 0.0(4) %
[9]; Table 5
  Inhibition of PAF-induced platelet aggregation in words: poor inhibitors
[9]; compound 20 μg/ml
  Percent aggregation, PAF: 88.8 ± 1.0(4) %
[9]; compound 50 μg/ml
  Percent aggregation, PAF: 19.8 ± 7.0(4) %
[9]; compound 100 μg/ml
  Percent aggregation, PAF: 2.1 ± 1.8(4) %
